Data on two compounds can be found in patent US20040029100A1, “Rapid screen to identify p-glycoprotein substrates and high affinity modulators” (priority 2000, published 2004).

Structures are written as SMILES.

The target in data set [1] is T1, P-glycoprotein (Pgp) purified from MDR CH^RB30 Chinese hamster ovary cells (Cricetulus griseus, UniProt P21448). Kind of data set: Trp fluorescence lifetime of purified Pgp in presence of nucleotides and drugs. Further details: Pgp was purified from plasma membrane of MDR CH^RB30 cells; endogenous in cells; host or cells: MDR CH^RB30 Chinese hamster ovary cells (plasma membrane, CHAPS extraction, concanavalin A-Sepharose pass-through). As to conditions: Pgp Trp decay, concentration of substance. The protocol:
(§1) Purification of Pgp. Pgp was purified from plasma membrane of MDR CH^RB30 cells by a modification of the method previously described for CH^RC5 (27). […] Contaminating glycoproteins were removed from the S2 fraction by passing through a concanavalinA-Sepharose 4B column (Pharmacia) equilibrated with 2 mM CHAPS buffer. […] The Pgp preparation was kept on ice and used within 24 h.
Fluorescence Lifetime Measurements. Fluorescence decays were measured with a PTI Model C-720 fluorescence lifetime instrument ((28), Photon Technology International Inc., Lawrenceville, N.J.) utilizing a proprietary stroboscopic detection technique (29). […] Fluorescence decays were analyzed with a PTI TimeMaster Pro analysis package using a discrete 1- to 4- exponential fit, 1- to 4-exponential global analysis, or lifetime distribution analysis by the Exponential Series Method (ESM) (30). The quality of fits was judged by chi-square values and weighed residuals.

Data set [2] deals with P-glycoprotein (Pgp) (Cricetulus griseus, UniProt P21448). Kind of data set: in vitro. The conditions noted are these: Chinese hamster, Kd2. Here is the method: as §1
(§2) Steady-state Fluorescence Measurements. Steady-state fluorescence measurements were performed using a Spex Model DM3000 spectrofluorimeter (Spex Industries Inc., Edison, N.J.) at 22° C., with excitation and emission bandpass set to 4 nm. Most fluorescence studies were carried out on solutions of 100 μg/mL Pgp in 2 mM CHAPS buffer, in the presence of 0.5 mg/mL of the phospholipid PMPC (Avanti Polar Lipids, Alabaster, Ala.). PMPC was added as extruded 100 nm unilamellar vesicles (8). With some drugs, the use of a lipid was not required for the fluorescence measurements. The excitation and emission spectra were the average of three scans, and were corrected by subtracting control scans with the same phospholipid buffer in the absence of protein.
(§3) Quenching Studies using TNP-Nucleotide Derivatives and Drugs. […] Working solutions of TNP-derivatives, and non-peptide drugs and modulators were also prepared in 2 mM CHAPS with 0.5 mg/mL PMPC vesicles, whereas peptide-based drugs and modulators were dissolved in dimethylsulfoxide (DMSO). […] Quenching experiments were performed by successively adding 5 μL aliquots of TNP-derivatives or drug solution to 500 μL of Pgp solution in a 0.5 cm quartz cuvette. After each addition, the sample was excited at 290 nm and the steady-state fluorescence emission was measured at 330 nm. Fluorescence intensities were corrected for dilution, scattering, and the inner filter effect as described elsewhere (8). Control titrations were performed with 30 μM NATA to assess the non-specific quenching of Trp fluorescence by TNP-nucleotide derivatives and drugs.
(§4) The experimental quenching data were computer-fitted to the following equation as described previously (8)(9): [formula]
(§5) where (ΔF/F0 100) is the percent quenching (percent change in fluorescence relative to the initial value), following addition of substrate at a concentration [S], and Kd is the dissociation constant. Fitting was carried out using nonlinear regression with the Marquardt-Levenberg algorithm (SigmaPlot, SPSS Inc., Chicago, Ill.), and values of Kd and (ΔFmax/F0 100) were extracted. For biphasic titration curves, each section of the binding curve was fitted to the above equation separately, as described previously (32).

Data set [3] concerns the target T1, P-glycoprotein (Pgp) purified from MDR CH^RB30 Chinese hamster ovary cells. The data set can be described thus: Quenching of intrinsic Trp fluorescence of purified Pgp by nucleotides, drugs and peptides. The protocol: as §1, §2, §3, §4, §5
For data set [4], the target named is Pgp ATPase (Cricetulus griseus, UniProt P21448). Kind of data set: Pgp ATPase activity. The class given is biochemical. As to conditions: over the range 0.3-0.5 M.
Chain of Pgp ATPase (P21448 whole entry): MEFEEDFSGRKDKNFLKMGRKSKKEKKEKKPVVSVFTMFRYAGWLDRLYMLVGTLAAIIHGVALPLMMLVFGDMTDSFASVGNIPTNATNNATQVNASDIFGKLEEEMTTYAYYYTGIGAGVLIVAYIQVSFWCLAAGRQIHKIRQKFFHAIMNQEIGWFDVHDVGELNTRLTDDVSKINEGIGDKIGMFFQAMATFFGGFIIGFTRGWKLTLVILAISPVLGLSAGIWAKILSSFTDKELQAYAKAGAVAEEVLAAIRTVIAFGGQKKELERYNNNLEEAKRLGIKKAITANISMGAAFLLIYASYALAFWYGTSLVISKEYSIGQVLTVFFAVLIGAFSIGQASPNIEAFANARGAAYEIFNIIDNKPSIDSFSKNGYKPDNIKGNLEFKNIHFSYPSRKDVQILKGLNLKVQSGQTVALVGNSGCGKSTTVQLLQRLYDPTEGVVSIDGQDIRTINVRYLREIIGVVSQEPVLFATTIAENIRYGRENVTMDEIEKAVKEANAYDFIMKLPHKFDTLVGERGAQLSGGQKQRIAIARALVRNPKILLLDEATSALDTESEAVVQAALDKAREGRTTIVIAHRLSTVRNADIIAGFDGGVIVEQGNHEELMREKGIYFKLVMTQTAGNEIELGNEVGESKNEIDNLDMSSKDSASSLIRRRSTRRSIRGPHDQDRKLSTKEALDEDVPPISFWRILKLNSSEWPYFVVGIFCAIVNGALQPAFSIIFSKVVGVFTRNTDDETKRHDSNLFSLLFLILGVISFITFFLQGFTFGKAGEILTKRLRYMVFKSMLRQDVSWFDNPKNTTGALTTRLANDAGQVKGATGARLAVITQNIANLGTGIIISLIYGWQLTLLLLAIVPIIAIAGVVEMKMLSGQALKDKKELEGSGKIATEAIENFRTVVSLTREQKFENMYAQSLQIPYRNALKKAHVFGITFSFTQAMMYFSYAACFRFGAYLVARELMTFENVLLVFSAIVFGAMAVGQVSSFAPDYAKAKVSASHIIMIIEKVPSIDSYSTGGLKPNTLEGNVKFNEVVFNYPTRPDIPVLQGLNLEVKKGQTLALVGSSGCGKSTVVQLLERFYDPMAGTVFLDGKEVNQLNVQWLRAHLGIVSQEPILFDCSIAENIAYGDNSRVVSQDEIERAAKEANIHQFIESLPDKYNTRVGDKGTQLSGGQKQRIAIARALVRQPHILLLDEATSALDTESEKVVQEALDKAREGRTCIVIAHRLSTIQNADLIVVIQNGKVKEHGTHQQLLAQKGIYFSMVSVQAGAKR

T1 sequence (P21448 whole entry): as above
Chain of P-glycoprotein (Pgp) (P21448 whole entry): as above

The Kd is a measure of binding affinity in units of concentration. Low readings indicate higher affinity, high ones lower affinity. Regarding `COc1cccc2c1C(=O)c1c(O)c3c(c(O)c1C2=O)C[C@@](O)(C(C)=O)C[C@@H]3O[C@H]1C[C@H](N)[C@H](O)[C@H](C)O1` [daunorubicin], in data set [1], the “<tav> (amplitude average lifetime)” value amounted to 2.61 ns, the “a1 (pre-exponential value)” value is recorded as 0.71, the “a2 (pre-exponential value)” value amounted to 0.52 and the “t1 (fluorescence lifetime)” value came to 1.3 ns. Moreover, in data set [1], the “t2 (fluorescence lifetime)” value amounted to 4.4 ns. Further, binding in data set [2] was put at a Kd of 10.7 ± 1.7 µM. In data set [3], binding was characterised by a dissociation constant (Kd) of 2.97 ± 0.38 µM, the ΔFmax1 was determined as 22.7 ± 1.3% and the ΔFmax2 is given as 38.2 ± 2.4%.

Take `C=CC(N)=O` [acrylamide]: the “decline in catalytic activity (ATP hydrolysis by Pgp)” value in data set [4] was around 20%.
